Read-outs that look alike come from different tables or passages of the source.
Legend:
[1] = test system: adjuvant-induced arthritis; experiment: Established Adjuvant-Induced Arthritis in Rats; format: in vivo, Charles River Lewis male rats; settings: rat; for ED50: oral gavage, dosed on day of grouping and 6 following days, ED50% decrease from control paw volume (uninjected left hind paw), read-out: Adjuvant Arthritic ED50; for Adjuvant Arthritic, paw volume reduction at the indicated dose: oral
[2] = test system: phenylquinone-induced writhing (pain); experiment: Phenylquinone Writhing Test; format: in vivo, female white mice; settings: read-out: Phenylquinone Writhing ED50
Procedure: A test compound suspended in 1% methylcellulose was given orally to fasted (17-21 hours) female white mice, 5-20 animals per double blind test. Aqueous (0.01% phenyl-p-benzoquinone) phenylquinone, 0.20 ml per mouse, was injected intraperitoneally 6 minutes before observations were begun.

[3] = mouse, oral, fasted, effective analgesic dose for 50% of the mice

| Compound | ED50 [1] [mg/kg] | ED50 [2, 3] [mg/kg] | further results |
| --- | --- | --- | --- |
| FC(F)C(F)(F)Sc1nc2c([nH]1)C(c1ccccc1)Oc1ccccc1-2 (stereo not shown) [Example 1, 3,4-Dihydro(or 1,4-dihydro)-2-[(1,1,2,2-tetrafluoroethyl)thio]-4-phenyl-[1]benzopyrano[3,4-d]imidazole] | 3.4 | 1.3 | – |
| CCSc1nc2c([nH]1)C(c1ccccc1)Oc1ccccc1-2 (stereo not shown) [Example 8] | – | – | Adjuvant Arthritic, paw volume reduction at the indicated dose ([1]; at 20 (mg/kg)): 18% |
| COc1ccc2c(c1)c(CC(=O)O)c(C)n2C(=O)c1ccc(Cl)cc1 [Indomethacin, indomethacin, reference compound] | – | – | ED50 ([2]; Mus musculus, po): 0.35 mg/kg |
| Fc1ccc(C2Oc3ccccc3-c3nc(SC(F)(F)C(F)F)[nH]c32)cc1 (stereo not shown) [Example 3, 3,4-Dihydro(or 1,4-dihydro)-2-[(1,1,2,2-tetrafluoroethyl)thio]-4-(4-fluorophenyl)-[1]benzopyrano[3,4-d]-imidazole] | 4 | 0.79 | – |
| CC(=O)Oc1ccccc1C(=O)O [Aspirin, aspirin, reference compound] | – | – | ED50 ([2]; Mus musculus, po): 135 mg/kg |
| FC(F)(F)Sc1nc2c([nH]1)C(c1ccccc1)Oc1ccccc1-2 (stereo not shown) [Example 4, 3,4-Dihydro(or 1,4-dihydro)-2-[(trifluoromethyl)thio]4phenyl-[1]benzopyrano[3,4-d]imidazole] | – | 0.58 | Adjuvant Arthritic, paw volume reduction at the indicated dose ([1]; at 9 (mg/kg)): 31% |
| CS(=O)(=O)c1nc2c([nH]1)C(c1ccccc1)Oc1ccccc1-2 (stereo not shown) [Example 6, 3,4-Dihydro(or 1,4-dihydro)-2-(methylsulfonyl)-4-phenyl-[1]benzopyrano[3,4-d]imidazole] | – | 78 | Adjuvant Arthritic, paw volume reduction at the indicated dose ([1]; at 27 (mg/kg)): 34% |
| O=S(=O)(c1nc2c([nH]1)C(c1ccccc1)Oc1ccccc1-2)C(F)(F)C(F)F (stereo not shown) [Example 2, 3,4-Dihydro(or 1,4-dihydro)-2-[(1,1,2,2-tetrafluoroethyl)sulfonyl]-4-phenyl-[1]benzopyrano[3,4-d]imidazole] | 1.3 | 0.19 | – |
| FC(F)(F)CSc1nc2c([nH]1)C(c1ccccc1)Oc1ccccc1-2 (stereo not shown) [Example 9] | – | – | Adjuvant Arthritic, paw volume reduction at the indicated dose ([1]; at 20 (mg/kg)): 30% |
| O=S(=O)(c1nc2c([nH]1)C(c1ccccc1)Oc1ccccc1-2)C(F)(F)F (stereo not shown) [Example 5, 3,4-Dihydro(or 1,4-dihydro)-2-[(trifluoromethyl)sulfonyl]-4-phenyl-[1]benzopyrano[3,4-d]imidazole] | 0.8 | 0.16 | – |
| CC(C)Cc1ccc(C(C)C(=O)O)cc1 (stereo not shown) [Ibuprofen, ibuprofen, reference compound] | – | 10 | – |
| COc1ccc(C2Oc3ccccc3-c3nc(SC(F)(F)C(F)F)[nH]c32)cc1 (stereo not shown) [Example 7] | – | < 4 | – |
| CCCCC1C(=O)N(c2ccccc2)N(c2ccccc2)C1=O [Phenylbutazone, phenylbutazone, reference compound] | – | 80 | – |
